The test system of data set [1] is artificial lipid membrane. The data set is described as follows: PAMPA membrane permeability assay. In kind it is in vitro ADME. The following applies: pH 7.4 buffer, GIT lipid, 4 hours incubation. Here is the method:
The PAMPA assay (pION, Inc., Woburn Mass.) was used to determine the ability of compounds of the invention to cross an artificial lipid membrane by passive diffusion. Test compounds were dissolved in DMSO (10 mM) and diluted 200-fold in buffer (pION Inc., pH 7.4) to provide 50 uM stock solutions. Buffer (150 μL) was added to a UV blank plate and stock solutions (150 μL) were transferred to a UV reference plate. The blank and reference spectrum were read using a spectrophotometer. Stock solutions (200 μL) were added to the donor plate of the PAMPA sandwich plate and an accept plate painted with GIT lipid (pION Inc., 5 μL) was placed on top. Buffer (200 μL) was added to the acceptor plate and the PAMPA sandwich plate was incubated for 4 hours. Aliquots (150 μL) from the acceptor plate were added to a UV plate and read as acceptor spectrum. Aliquots (150 μL) of the donor solutions were added to a UV analysis plate and read as donor spectrum. The permeability coefficient of test compounds was calculated using PAMPA Explorer™ software (version 3.5.0.4) based on the AUC of the reference plate, the donor plate, and the acceptor plate.

Data set [2] has as its target T1, NaV1.7 (Homo sapiens, UniProt Q15858).
T1 construct: expressed in transfected cells; host or cells: Tetracycline-inducible cell line kept under hygromycin and blasticidin selection
The data set is described as follows: Nav1.7 whole cell patch clamp, external block (extracellular application). Type of data set: cell-based. The following applies: test concentration 30 μM, compound in external solution for 5 minutes, 5 Hz stimulation. The method, then:
(§1) The compounds were synthesized according to the described method and tested for the ability to inhibit voltage-gated sodium channels.
(§2) NaV1.7 was expressed upon induction with tetracycline. Cells were cultured in DMEM containing 10% dialyzed Fetal Bovine Serum (VWR, Radnor, Pa.), 1% Glutamax (VWR, Radnor, Pa.), 1% Penicillin-Streptomycin (VWR, Radnor, Pa.), 100 mg/L Hygromycin (Thermo Fisher Scientific, Waltham, Mass. and 5 mg/L Blasticidin (Alfa Aesar, Haverhill, Mass.). Cells were grown and maintained at 37° C. in a humidified environment containing 10% CO2 in air. Cells were detached from the culture flask for passage and harvested using 0.05% Trypsin-EDTA (Thermo Fisher Scientific, Waltham, Mass.). To induce NaV1.7, cells were induced with tetracycline ([…], IBI Scientific, Peosta, Iowa) the day before recording and plated onto 24-well plates. Cells were washed with DPBS (VWR, Radnor, Pa.), trypsinized and then triturated five times in 10 mL of growth media to break apart cell aggregates. For one 24-well plate, 2 mL of cell suspension was mixed with 23 mL of fresh growth media and […] tetracycline added. 1 ml of mixed media with cells was then added to each well of a 24-well plate, with a 12 mm coverslip already placed in the bottom of the well. Cells were then incubated in 37° C. and 10% CO2 overnight.
(§3) The intracellular solution contained the following (in mM) CsCl 135, NaCl 10, EGTA 10, HEPES 10, MgCl2 2, adjusted to pH 7.2 with CsOH. The external solution was a normal Ringer solution containing (in mM) NaCl 155, HEPES 10, glucose 10, KCl 3.5, CaCl2 1.5, MgCl2 1 adjusted to pH 7.4 with NaOH. CsCl is from Alfa Aesar, Haverhill, Mass. All other chemicals are from Sigma-Aldrich, St. Louis, Mo. In order to test the degree of internal block by test compounds the compounds were dissolved in internal solution at the indicated test concentration. […] In order to test the degree of external block by test compounds the compounds were dissolved in external solution at the indicated test concentration.
(§4) 18-24 hours after cells were induced with tetracycline, coverslips were placed into a chamber filled with Normal Ringer solution at room temperature and the chamber placed on a microscope. Pipettes were pulled from borosilicate glass on a P97 puller (Sutter Instrument, Novato, Calif.) and polished with a MF-830 Microforge (Narishige International USA, Inc., Amityville, N.Y.) to have a resistance of 1.5-2.5 MQ when filled with CsCl internal solution at room temperature. Healthy cells (those that are round and translucent with no visible blemishes) were chosen for seal formation. A seal was formed between the pipette and the cell, and a brief pulse of suction was used to “break in” and establish the whole-cell configuration. The membrane potential was held at −100 mV before the voltage protocol began. Only cells with series resistance between 1.5-5 MQ were retained for analysis. The voltage protocol was as follows: Cells were held at −100 mV for 12 ms followed by a hyperpolarizing step to −105 mV for 12 ms to monitor the leak. Cells were then stepped back to −100 mV for 40 ms. Cells were then depolarized to −20 mV for 10 ms and then returned to −100 mV for 26 ms (The FIGURE).
(§5) Once the recording was started, the voltage protocol was run at 30 second intervals for 5 minutes to get a stable baseline. […] Currents were recorded using PatchMaster software with Heka EPC10 (HEKA Electronics, Lambrecht, Germany). […]

In data set [3] the target is T1, NaV1.7. Put plainly: Nav1.7 whole cell patch clamp, internal block (intracellular inhibition). Particulars: test concentration 10 μM, compound in internal solution, 5 Hz stimulation. Type of data set: cell-based. Here is the method:
as §1, §2, §3, §4, §5

Each structure is given as a SMILES string.

T1 sequence (Q15858 whole entry): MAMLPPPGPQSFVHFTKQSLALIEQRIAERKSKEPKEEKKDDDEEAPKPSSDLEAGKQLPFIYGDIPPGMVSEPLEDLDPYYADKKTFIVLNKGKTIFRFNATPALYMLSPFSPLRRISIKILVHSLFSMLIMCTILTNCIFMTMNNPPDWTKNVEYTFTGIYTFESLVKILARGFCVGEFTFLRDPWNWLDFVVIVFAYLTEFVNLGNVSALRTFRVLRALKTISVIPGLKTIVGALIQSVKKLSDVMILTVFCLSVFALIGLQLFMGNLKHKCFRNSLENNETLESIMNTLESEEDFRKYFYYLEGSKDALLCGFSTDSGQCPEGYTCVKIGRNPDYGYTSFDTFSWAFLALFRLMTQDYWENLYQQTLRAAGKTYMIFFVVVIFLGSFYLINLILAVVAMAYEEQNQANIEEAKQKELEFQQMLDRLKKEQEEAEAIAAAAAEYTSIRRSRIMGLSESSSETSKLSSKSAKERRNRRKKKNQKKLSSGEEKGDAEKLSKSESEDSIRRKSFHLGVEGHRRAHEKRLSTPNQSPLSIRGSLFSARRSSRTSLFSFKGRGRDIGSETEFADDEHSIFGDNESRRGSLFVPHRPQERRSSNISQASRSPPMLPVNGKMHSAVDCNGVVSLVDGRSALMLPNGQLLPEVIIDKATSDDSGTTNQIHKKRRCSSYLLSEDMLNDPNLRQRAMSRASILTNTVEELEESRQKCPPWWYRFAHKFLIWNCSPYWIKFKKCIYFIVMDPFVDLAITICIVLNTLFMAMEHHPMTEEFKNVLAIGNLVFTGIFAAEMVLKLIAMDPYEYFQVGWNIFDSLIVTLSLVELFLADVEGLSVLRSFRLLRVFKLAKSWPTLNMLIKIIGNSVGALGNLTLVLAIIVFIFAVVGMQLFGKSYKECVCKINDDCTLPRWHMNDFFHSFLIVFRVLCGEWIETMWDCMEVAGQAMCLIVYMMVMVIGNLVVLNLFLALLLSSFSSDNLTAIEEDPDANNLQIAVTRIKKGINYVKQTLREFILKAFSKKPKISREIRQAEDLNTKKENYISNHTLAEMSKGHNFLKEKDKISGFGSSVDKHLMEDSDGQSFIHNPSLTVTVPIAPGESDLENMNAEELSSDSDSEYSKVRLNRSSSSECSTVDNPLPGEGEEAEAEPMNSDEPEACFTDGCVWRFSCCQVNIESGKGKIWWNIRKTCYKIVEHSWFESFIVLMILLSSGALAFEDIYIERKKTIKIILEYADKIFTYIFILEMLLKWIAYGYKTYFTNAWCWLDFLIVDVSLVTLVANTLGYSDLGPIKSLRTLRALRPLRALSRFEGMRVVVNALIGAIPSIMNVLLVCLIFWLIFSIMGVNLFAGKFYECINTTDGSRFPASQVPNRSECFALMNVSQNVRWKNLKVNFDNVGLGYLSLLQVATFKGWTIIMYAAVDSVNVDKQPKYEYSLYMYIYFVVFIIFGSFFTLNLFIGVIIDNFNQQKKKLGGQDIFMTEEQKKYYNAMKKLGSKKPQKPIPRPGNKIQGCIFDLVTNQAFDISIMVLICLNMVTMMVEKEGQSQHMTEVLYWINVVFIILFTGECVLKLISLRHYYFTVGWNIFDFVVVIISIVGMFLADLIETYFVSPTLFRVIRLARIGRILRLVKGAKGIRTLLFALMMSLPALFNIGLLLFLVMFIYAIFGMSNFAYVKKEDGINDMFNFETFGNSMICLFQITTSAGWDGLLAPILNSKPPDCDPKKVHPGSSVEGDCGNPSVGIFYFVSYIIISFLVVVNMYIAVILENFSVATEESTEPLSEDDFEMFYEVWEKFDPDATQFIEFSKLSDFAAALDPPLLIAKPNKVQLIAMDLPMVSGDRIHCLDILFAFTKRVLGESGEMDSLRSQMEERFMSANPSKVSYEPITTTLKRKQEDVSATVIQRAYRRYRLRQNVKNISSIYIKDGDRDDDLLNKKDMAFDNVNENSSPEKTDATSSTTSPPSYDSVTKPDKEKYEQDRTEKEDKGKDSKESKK

As to `Cc1cccc(C)c1NC(=O)C[n+]1ccccc1-c1ccccc1.[Br-]` [2′A, 1-(2-((2,6-dimethylphenyl)amino)-2-oxoethyl)-2-phenylpyridin-1-ium bromide], the Papp at 4 h, 50 uM in data set [1] is below 1 ×10⁻⁶ cm/s. In data set [2], this compound displayed an inhibition at 30 µM below 45%. For the same compound, in data set [3], the inhibition at 10 µM was above 75%.

`CCc1ccc[n+](CC(=O)Nc2c(C)cccc2C)c1.[Br-]` [3′A, 1-(2-((2,6-dimethylphenyl)amino)-2-oxoethyl)-3-ethylpyridin-1-ium bromide]: the Papp at 4 h, 50 uM in data set [1] was below 1 ×10⁻⁶ cm/s. In addition, the inhibition at 30 µM in data set [2] was below 45%. Also, in data set [3], the inhibition at 10 µM is above 75%.

Turning to `Cc1cccc(C)c1NC(=O)C[n+]1cccc(-c2ccccc2)c1.[Br-]` [1′A, 1-(2-((2,6-dimethylphenyl)amino)-2-oxoethyl)-3-phenylpyridin-1-ium bromide], the Papp at 4 h, 50 uM in data set [1] was below 1 ×10⁻⁶ cm/s. For the same compound, the inhibition at 30 µM in data set [2] was below 45%. This compound gave an inhibition at 10 µM in data set [3] above 75%.

In the case of `CCc1cccc[n+]1CC(=O)Nc1c(C)cccc1C.[Br-]` [4′A, 1-(2-((2,6-dimethylphenyl)amino)-2-oxoethyl)-2-ethylpyridin-1-ium bromide], the Papp at 4 h, 50 uM in data set [1] was below 1 ×10⁻⁶ cm/s. The compound also showed an inhibition at 30 µM in data set [2] below 45%. Also, in data set [3], the inhibition at 10 µM was above 75%.

In data set [2], `CCOC(=O)c1ccc[n+](CC(=O)Nc2c(C)cccc2C)c1` [5′A, 1-(2-((2,6-dimethylphenyl)amino)-2-oxoethyl)-3-(ethoxycarbonyl)pyridin-1-ium bromide] showed an inhibition at 30 µM below 45%. The inhibition at 10 µM in data set [3] was above 75%.

The values above are taken from patent US10925865B2, “Charged ion channel blockers and methods for use” (Nocion Therapeutics, Inc., priority 2019, dated 2021).
